Assay results: patent US11229664B2, “Treatment of myelosuppression” (priority 2012, dated 2022)
Like-named read-outs stand apart in the source and are kept apart here.

Assays:
[1] = system: BxPC-3 pancreas tumor cell line; assay: BxPC-3 human pancreas tumor xenograft model: tumor weight, tumor growth inhibition (TGI); assay type: in vivo, female athymic nude mice
Protocol: Compounds tested in the experiment were as follows. ODSH was made by Pyramid Laboratories, Inc. (Costa Mesa, Calif.). ODSH was provided at a stock concentration of 50 mg/ml and stored at room temperature until use. ODSH was diluted in a 0.9% NaCl solution (B. Braun Medical Inc., Irvine, Calif.) to a concentration of 2.4 mg/ml to deliver 24 mg/kg, in a 10 ml/kg dose volume when administered intravenously. A concentration of 4.8 mg/ml was formulated to deliver a 24 mg/kg dose at a 5 ml/kg dose volume when administered subcutaneously. ODSH was formulated fresh prior to each dose.
Nab-paclitaxel was manufactured by Abraxis BioScience LLC (Bridgewater, N.J.) and diluted in a 0.9% NaCl solution to a concentration of 1.5 mg/ml to deliver 15 mg/kg, in a 10 ml/kg dose volume. All standard agent preparations were made fresh prior to their administration.
BxPC-3 cells were obtained and prepared as follows. The BxPC-3 pancreas tumor cell line was received from American Type Culture Collection (ATCC, Manassas, Va.). Cultures were maintained in RPMI 1640 medium (Hyclone, Logan, Utah) supplemented with 5% fetal bovine serum. The cells were housed in a 5% CO2 atmosphere. The cultures were expanded in tissue culture flasks at a 1:3 split ratio until a sufficient amount of cells were harvested.
BxPC-3 Human Pancreas Tumor Xenograft Model: Female athymic nude mice per treatment condition were inoculated subcutaneously in the right flank with 0.1 ml of a 50% RPMI 1640/50% Matrigel™ (BD Biosciences, Bedford, Mass.) mixture containing a suspension of BxPC-3 tumor cells (approximately 5×10^6 cells/mouse).
Study Director V.1.7.54k (Study Log).
Mean tumor growth inhibition (TGI) was calculated utilizing Formula A below (deaths were not included in the TGI calculations).
All statistical analyses in the xenograft study were performed with GraphPad Prism® v4 software.

[2] = for Deaths: N = 10 per group
Protocol: All experiments were conducted on female athymic nude mice (Hsd:Athymic Nude-Foxn1nu) supplied by Harlan (Indianapolis, Ind.). Mice were received at four weeks of age, 12-15 grams in weight, and were acclimated for seven days prior to handling. The mice were housed in microisolator cages (Lab Products, Seaford, Del.) and maintained under specific pathogen-free conditions. All procedures were carried out under appropriate institutional guidelines for animal care.
Seven days following inoculation, tumors were measured using calipers and tumor weight was calculated using the animal study management software. […] Body weights were recorded when the mice were randomized and were taken twice weekly thereafter in conjunction with tumor measurements, on each of Days 1, 4, 8, 11, 15, 18, 22, 26, 30, 33, and 36.
The study was terminated when the vehicle control reached an endpoint of 1500 mg, on Day 36.

[3] = Total deaths on or before Day 26

Compound | Difference in tumor weight compared to vehicle control, Day 26 ([1]; ANOVA with Tukey's Multiple Comparison Test, BxPC-3 xenograft) | Tumor weight, Mean ([1]; Day 26, Group 3: oxaliplatin 10 mg/kg IV wkly x4 (alone to Day 26), from Day 26 gemcitabine 80 mg/kg IP + nab-paclitaxel 15 mg/kg IV) | TGI (mean tumor growth inhibition), Day 26 ([1]; Day 26 vs Day 1, compared to vehicle control, BxPC-3 xenograft, ODSH 24 mg/kg BID, oxaliplatin 10 mg/kg, gemcitabine 80 mg/kg (Table 1)) | Day 26 Tumor Weight ([1]; Table 14, treatment administered until Day 26) | Average Weight ([2]; Day 1) | % Weight Loss or Gain ([2]; Day 4) | % Weight Loss or Gain ([2]; Day 8) | Average Weight ([2]; Day 11) | % Weight Loss or Gain ([2]; Day 15) | Average Weight ([2]; Day 15) | % Weight Loss or Gain ([2]; Day 18) | Deaths [2, 3] | Starting Weight ([2]; group mean body weight at start, dose, schedule and route per group as in table) | Mice with bruising on the tails or abdomen (site of injection) ([2]; ten mice per group, BxPC-3 xenograft study) | Deaths ([2]; Total deaths on or before Day 36) | Day by which the mice recovered their weight ([2]; mouse, in vivo) | Day on which maximum weight loss was reached ([2]; mouse, in vivo) | Maximum weight loss ([2]; mouse, in vivo) | Starting Weight ([2]; mouse, in vivo)
O=C1[O][Pt]2([NH][C@@H]3CCCC[C@H]3[NH]2)[O]C1=O [Oxaliplatin, reference compound] | No significant difference | 635.0 mg | 8.0% | 635.0 ± 52.3 mg | 20.82 g | −2.02% | −0.82% | 20.12 g | −0.05% | 20.81 g | −1.78% | 0 | 20.82 g | One mouse | – | – | – | – | –
Nc1ccn([C@@H]2O[C@H](CO)[C@@H](O)C2(F)F)c(=O)n1 [Gemcitabine] | – | – | – | – | – | – | – | – | – | – | – | 0 | – | – | 0 | ≤ 18 days | 11 days | 8.7% | 22.48 g
